Reference: patent US12637461B2, “Compounds for the activation of AMPK” (PFIZER INC., priority 2022, dated 2026)

Molecular target: T1, human AMPK α2β2γ3 (Homo sapiens, UniProt O43741+P54646+Q9UGI9)
T1 construct: expressed in transfected cells; host or cells: HEK293AD cells, MaxCyte bulk electroporation
Experiment: Primary cellular assay: γ3 associated phospho-Thr172 AMPK detection (custom pAMPK Surefire AlphaLISA) in α2β2γ3 bulk transiently transfected HEK293 cells
Type: cell-based
Settings: activation of human AMPK α2β2γ3 (γ3 pThr172 AMPK signal) in transiently transfected HEK293 cells, 20 minutes compound incubation; for Emax: 20 min, read-out: Assay GMean Asy. Max (%); for Emax / Assay GMean Asy. Max (%): geometric mean of the asymptotic max; for EC50: geometric mean EC50, read-out: Assay GMean EC50
Summary of the method: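 Transiently co-transfected (α2/β2/γ3 plasmids, electroporation) HEK293AD cells, plated 2 days in low-glucose DMEM+10% FBS, treated 20 min with compounds (11-point half-log dilutions). Lysates read by modified AlphaLISA capturing γ3 with pThr172 antibody detection. % effect relative to 30 μM HPE and DMSO; EC50 and Emax from curve fit.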

T1 sequence (P54646 whole entry): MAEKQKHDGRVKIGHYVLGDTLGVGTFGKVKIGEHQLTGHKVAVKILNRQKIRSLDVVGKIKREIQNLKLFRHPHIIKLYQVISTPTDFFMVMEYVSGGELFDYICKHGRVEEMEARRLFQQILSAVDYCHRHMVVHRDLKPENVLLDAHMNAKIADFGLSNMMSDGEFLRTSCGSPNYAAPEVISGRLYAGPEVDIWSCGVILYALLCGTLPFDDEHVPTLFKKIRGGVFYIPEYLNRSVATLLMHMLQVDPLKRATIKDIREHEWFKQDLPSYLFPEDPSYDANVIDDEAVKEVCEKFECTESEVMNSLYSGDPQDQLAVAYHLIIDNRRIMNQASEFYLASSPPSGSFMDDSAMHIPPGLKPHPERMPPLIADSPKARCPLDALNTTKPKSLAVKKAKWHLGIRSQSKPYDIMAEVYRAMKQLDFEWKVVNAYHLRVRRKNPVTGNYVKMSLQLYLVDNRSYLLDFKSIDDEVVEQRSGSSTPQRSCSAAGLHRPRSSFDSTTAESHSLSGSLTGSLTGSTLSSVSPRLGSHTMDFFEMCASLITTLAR
T1 sequence (O43741 whole entry): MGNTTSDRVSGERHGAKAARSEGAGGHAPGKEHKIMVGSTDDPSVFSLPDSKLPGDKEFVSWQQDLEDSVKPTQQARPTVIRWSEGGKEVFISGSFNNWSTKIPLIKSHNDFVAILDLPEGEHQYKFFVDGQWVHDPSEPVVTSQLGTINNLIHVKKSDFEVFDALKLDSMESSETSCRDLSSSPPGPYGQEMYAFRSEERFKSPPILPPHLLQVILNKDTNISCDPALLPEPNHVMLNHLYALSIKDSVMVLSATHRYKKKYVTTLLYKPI
T1 sequence (Q9UGI9 whole entry): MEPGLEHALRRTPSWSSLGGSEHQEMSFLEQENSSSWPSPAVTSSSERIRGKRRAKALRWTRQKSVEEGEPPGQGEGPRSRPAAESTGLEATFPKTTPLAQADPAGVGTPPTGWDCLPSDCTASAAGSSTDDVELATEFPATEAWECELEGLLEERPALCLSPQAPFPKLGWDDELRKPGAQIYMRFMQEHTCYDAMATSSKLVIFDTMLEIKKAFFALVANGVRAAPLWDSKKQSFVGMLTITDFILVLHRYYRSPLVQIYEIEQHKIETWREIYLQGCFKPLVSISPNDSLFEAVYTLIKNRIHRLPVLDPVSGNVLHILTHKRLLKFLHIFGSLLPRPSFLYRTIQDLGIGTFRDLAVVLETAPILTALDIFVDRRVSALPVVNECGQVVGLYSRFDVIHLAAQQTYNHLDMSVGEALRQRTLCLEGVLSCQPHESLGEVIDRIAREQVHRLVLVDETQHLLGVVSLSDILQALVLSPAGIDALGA

| Structure (SMILES) | Emax | EC50 | Assay GMean Asy. Max (%) |
| --- | --- | --- | --- |
| CN1CCC(F)(C(=O)N2CC[C@@H](Nc3ncc4c(c3F)C(C)(c3cccc(Cl)c3F)CN(c3ncccc3F)C4=O)C2)CC1 (single isomer, unassigned) [compound 109] | 81.7% | 0.0762 µM |  |
| Cn1cc(F)c(N2C[C@](C)(c3cccc(Cl)c3F)c3c(cnc(NC4CN(C(=O)N5C[C@@H]6C[C@H]5CO6)C4)c3F)C2=O)n1 [Example 21, (4R)-4-(3-chloro-2-fluorophenyl)-5-fluoro-2-(4-fluoro-1-methyl-1H-pyrazol-3-yl)-4-methyl-6-({1-[(1S,4S)-2-oxa-5-azabicyclo[2.2.1]heptane-5-carbonyl]azetidin-3-yl}amino)-3,4-dihydro-2,7-naphthyridin-1(2H)-one] | 142% | 0.0398 µM |  |
| Cn1cc(F)c(N2C[C@](C)(c3cccc(Cl)c3F)c3c(cnc(NC4CN(C(=O)C(O)C5CC5)C4)c3F)C2=O)n1 (single isomer, unassigned) [compound 42] | 76.2% | 0.0591 µM |  |
| Cn1cc(F)c(N2CC(C)(c3cccc(Cl)c3F)c3c(ccc(NC4CN(CC(=O)N5CCC5)C4)c3F)C2=O)n1 (centres unmarked) [compound 92, 6-({1-[2-(azetidin-1-yl)-2-oxoethyl]azetidin-3-yl}amino)-4-(3-chloro-2-fluorophenyl)-5-fluoro-2-(4-fluoro-1-methyl-1H-pyrazol-3-yl)-4-methyl-3,4-dihydroisoquinolin-1(2H)-one, from P18 (ENANT-2)] |  | 0.0589 µM | 109% |
| Cn1cnc(N2C[C@](C)(c3cccc(Cl)c3F)c3c(cnc(NC4CN(C(=O)C5CC5C(F)(F)F)C4)c3F)C2=O)c1 (single isomer, unassigned) [compound 98] |  | 0.114 µM | 66.2% |
| CN(C)c1nc(NC2CN(C(=O)C3(O)CC3)C2)nc2c1C(=O)N(c1ncccc1F)CC2(C)c1cccc(Cl)c1F (single isomer, unassigned) [Example 38, 8-(3-Chloro-2-fluorophenyl)-4-(dimethylamino)-6-(3-fluoropyridin-2-yl)-2-{[1-(1-hydroxycyclopropane-1-carbonyl)azetidin-3-yl]amino}-8-methyl-7,8-dihydropyrido[4,3-d]pyrimidin-5(6H)-one] | 217% | 0.146 µM |  |
| COCC(C)(O)C(=O)N1CC(Nc2ncc3c(c2F)C(C)(c2cccc(Cl)c2F)CN(c2nn(C)cc2F)C3=O)C1 (single isomer, unassigned) [compound 46] | 111% | 0.0861 µM |  |
| CN(CC1CC1)C(=O)CN1CC(Nc2ncc3c(c2F)[C@@](C)(c2cccc(Cl)c2F)CN(c2nn(C)cc2F)C3=O)C1 [compound 73, 2-(3-{[(5R)-5-(3-chloro-2-fluorophenyl)-4-fluoro-7-(4-fluoro-1-methyl-1H-pyrazol-3-yl)-5-methyl-8-oxo-5,6,7,8-tetrahydro-2,7-naphthyridin-3-yl]amino}azetidin-1-yl)-N-(cyclopropylmethyl)-N-methylacetamide] | 46.1% | 0.0453 µM |  |
| CN(C)C(=O)CN1CC(Nc2ccc3c(c2F)C(C)(c2cccc(Cl)c2F)CN(c2nn(C)cc2F)C3=O)C1 (centres unmarked) [compound 90, 2-(3-{[4-(3-chloro-2-fluorophenyl)-5-fluoro-2-(4-fluoro-1-methyl-1H-pyrazol-3-yl)-4-methyl-1-oxo-1,2,3,4-tetrahydroisoquinolin-6-yl]amino}azetidin-1-yl)-N,N-dimethylacetamide, from P18 (ENANT-2)] | 120% | 0.147 µM |  |
| Cn1cc(F)c(N2C[C@](C)(c3cccc(Cl)c3F)c3c(cnc(NC4CN(C(=O)[C@@H]5C[C@@H]5F)C4)c3F)C2=O)n1 [Example 2, (4R)-4-(3-chloro-2-fluorophenyl)-5-fluoro-6-({1-[(1S,2S)-2-fluorocyclopropane-1-carbonyl]azetidin-3-yl}amino)-2-(4-fluoro-1-methyl-1H-pyrazol-3-yl)-4-methyl-3,4-dihydro-2,7-naphthyridin-1(2H)-one] | 81.7% | 0.0299 µM |  |
| C[C@]1(c2cccc(Cl)c2F)CN(c2cc(F)c(CN)cc2F)C(=O)c2cnc(NC3CN(C(=O)[C@@H]4C[C@@H]4F)C3)c(F)c21 [Example 14, (4R)-2-[4-(aminomethyl)-2,5-difluorophenyl]-4-(3-chloro-2-fluorophenyl)-5-fluoro-6-({1-[(1S,2S)-2-fluorocyclopropane-1-carbonyl]azetidin-3-yl}amino)-4-methyl-3,4-dihydro-2,7-naphthyridin-1(2H)-one] | 69.4% | 0.0337 µM |  |
| Cn1cc(F)c(N2C[C@](C)(c3cccc(Cl)c3F)c3c(cnc(NC4CN(C(=O)CC(C)(C)O)C4)c3F)C2=O)n1 [compound 64, (4R)-4-(3-chloro-2-fluorophenyl)-5-fluoro-2-(4-fluoro-1-methyl-1H-pyrazol-3-yl)-6-{[1-(3-hydroxy-3-methylbutanoyl)azetidin-3-yl]amino}-4-methyl-3,4-dihydro-2,7-naphthyridin-1(2H)-one] | 80.4% | 0.159 µM |  |
| CC1(c2cccc(Cl)c2F)CN(c2ncccc2F)C(=O)c2cnc(NC3CN(C(=O)C4(O)CC4(C)C)C3)nc21 (single isomer, unassigned) [Example 29, 8-(3-Chloro-2-fluorophenyl)-6-(3-fluoropyridin-2-yl)-2-{[1-(1-hydroxy-2,2-dimethylcyclopropane-1-carbonyl)azetidin-3-yl]amino}-8-methyl-7,8-dihydropyrido[4,3-d]pyrimidin-5(6H)-one] |  | 0.181 µM | 216% |
| C[C@]1(c2cccc(Cl)c2F)CN(c2cc(F)c(CO)cc2F)C(=O)c2cnc(NC3CN(C(=O)[C@@H]4C[C@@H]4F)C3)c(F)c21 [compound 77, (4R)-4-(3-chloro-2-fluorophenyl)-2-[2,5-difluoro-4-(hydroxymethyl)phenyl]-5-fluoro-6-({1-[(1S,2S)-2-fluorocyclopropane-1-carbonyl]azetidin-3-yl}amino)-4-methyl-3,4-dihydro-2,7-naphthyridin-1(2H)-one] | 78.2% | 0.0384 µM |  |

The remaining compounds from weak to strong by EC50, led by results:

| Emax | EC50 | Assay GMean Asy. Max (%) | Structure (SMILES) |
| --- | --- | --- | --- |
| 72.1% | 0.899 µM |  | C[C@]1(c2cccc(Cl)c2F)CN(c2n[nH]cc2F)C(=O)c2cnc(NC3CN(C(=O)[C@@H]4C[C@@H]4F)C3)c(F)c21 [Example 112, (4R)-4-(3-chloro-2-fluorophenyl)-5-fluoro-6-({1-[(1S,2S)-2-fluorocyclopropane-1-carbonyl]azetidin-3-yl}amino)-2-(4-fluoro-1H-pyrazol-3-yl)-4-methyl-3,4-dihydro-2,7-naphthyridin-1(2H)-one] |
| 71.4% | 0.11 µM |  | C[C@]1(c2cccc(Cl)c2F)CN(c2ccc(CCO)cn2)C(=O)c2cnc(NC3CN(C(=O)[C@@H]4C[C@@H]4F)C3)c(F)c21 [compound 48, (4R)-4-(3-chloro-2-fluorophenyl)-5-fluoro-6-({1-[(1S,2S)-2-fluorocyclopropane-1-carbonyl]azetidin-3-yl}amino)-2-[5-(2-hydroxyethyl)pyridin-2-yl]-4-methyl-3,4-dihydro-2,7-naphthyridin-1(2H)-one] |
| 83.4% | 0.0551 µM |  | Cn1cc(F)c(N2C[C@](C)(c3cccc(Cl)c3F)c3c(cnc(NC4CN(CC(=O)N5CCCC5)C4)c3F)C2=O)n1 [compound 65, (4R)-4-(3-chloro-2-fluorophenyl)-5-fluoro-2-(4-fluoro-1-methyl-1H-pyrazol-3-yl)-4-methyl-6-({1-[2-oxo-2-(pyrrolidin-1-yl)ethyl]azetidin-3-yl}amino)-3,4-dihydro-2,7-naphthyridin-1(2H)-one] |
|  | 0.0423 µM | 121% | CN1CCCC(N2CC(Nc3ncc4c(c3F)[C@@](C)(c3cccc(Cl)c3F)CN(c3nn(C)cc3F)C4=O)C2)C1=O (single isomer, unassigned) [compound 72] |
| 70.5% | 0.0339 µM |  | Cc1c(F)ccc(C2(C)CN(c3ncccc3F)C(=O)c3cnc(NC4CN(C(=O)C5(O)CC5)C4)c(F)c32)c1F (centres unmarked) [compound 106, 4-(2,4-difluoro-3-methylphenyl)-5-fluoro-2-(3-fluoropyridin-2-yl)-6-{[1-(1-hydroxycyclopropane-1-carbonyl)azetidin-3-yl]amino}-4-methyl-3,4-dihydro-2,7-naphthyridin-1(2H)-one, from P5 (ENANT-2)] |
| 208% | 0.0317 µM |  | CN(C(=O)CN1CC(Nc2ccc3c(c2F)C(C)(c2cccc(Cl)c2F)CN(c2nn(C)cc2F)C3=O)C1)C1CC1 (single isomer, unassigned) [Example 34, 2-(3-{[4-(3-Chloro-2-fluorophenyl)-5-fluoro-2-(4-fluoro-1-methyl-1H-pyrazol-3-yl)-4-methyl-1-oxo-1,2,3,4-tetrahydroisoquinolin-6-yl]amino}azetidin-1-yl)-N-cyclopropyl-N-methylacetamide] |
| 61.5% | 0.0315 µM |  | C[C@]1(c2cccc(Cl)c2F)CN(c2ccc(N)cn2)C(=O)c2cnc(NC3CN(C(=O)[C@@H]4C[C@@H]4F)C3)c(F)c21 [Example 15, (4R)-2-(5-aminopyridin-2-yl)-4-(3-chloro-2-fluorophenyl)-5-fluoro-6-({1-[(1S,2S)-2-fluorocyclopropane-1-carbonyl]azetidin-3-yl}amino)-4-methyl-3,4-dihydro-2,7-naphthyridin-1(2H)-one] |
| 81.6% | 0.0292 µM |  | CN1CCC(N2CC(Nc3ncc4c(c3F)[C@@](C)(c3cccc(Cl)c3F)CN(c3nn(C)cc3F)C4=O)C2)C1=O (single isomer, unassigned) [compound 69] |
